# Test: Henry solubility constant Hcp at 298.15 K (mol/(m3 Pa))
# Settings: reference: Bamford et al. (1999a)
row,Structure (SMILES),Henry solubility constant Hcp
1,Cc1cccc2c1ccc1ccccc12 [1-methylphenanthrene],0.2
2,Cc1ccc2ccccc2c1 [2-methylnaphthalene],0.019
3,c1cc2c3c(cccc3c1)CC2 [acenaphthene],0.054
4,C1=Cc2cccc3cccc1c23 [acenaphthylene],0.079
5,c1ccc2c(c1)Cc1c-2ccc2ccccc12 [benzo[a]fluorene],0.37
6,c1ccc2c(c1)-c1cccc3cccc-2c13 [benzo[jk]fluorene],0.51

# Next, values leading:
row,Henry solubility constant Hcp,Structure (SMILES)
1,0.021,Cc1cccc2ccccc12 [1-methylnaphthalene]
2,0.1,"c1ccc2c(c1)Cc1ccccc1-2 [2,3-benzindene]"
3,0.18,c1ccc2cc3ccccc3cc2c1 [anthracene]
4,1.9,c1ccc2c(c1)ccc1c3ccccc3ccc21 [chrysene]
5,0.23,c1ccc2c(c1)ccc1ccccc12 [phenanthrene]
